Counter-ions that a name gives are not always drawn.
Row | Structure (SMILES) | melting point
1 | CCCC(=O)Nc1ccc(-c2cc3ccccc3c(N3CCN(CC)CC3)n2)cc1 (as salt: hydrochloride) [Example 70, 3-(4-Propylcarbonylaminophenyl]-1-(4-Ethylpiperazin-1-Yl)Isoquinoline Hydrochloride] | 170 to 172 °C
2 | CCCCS(=O)(=O)Nc1ccc(-c2cc3ccccc3c(N3CCN(CC)CC3)n2)cc1 (as salt: hydrochloride) [Example 73, 3-(4-Butylsulfonylaminophenyl)-1-(4-Ethylpiperazin-1-Yl)Isoquinoline Hydrochloride] | 160 to 163 °C
3 | CCN1CCN(c2nc(-c3ccc(S(=O)(=O)N4CCS(=O)(=O)CC4)cc3)cc3ccccc23)CC1 (as salt: hydrochloride) [Example 77, 3-[(1,1-Dioxythiomorpholinyl)Sulfonylphenyl]-1-(4-Ethylpiperazin-1-Yl)Isoquinoline Hydrochloride] | 198 to 200 °C
4 | CCNS(=O)(=O)Cc1ccc(-c2cc3ccccc3c(N3CCN(CC)CC3)n2)cc1 (as salt: hydrochloride) [Example 80, 3-(4-Ethylaminosulfonylmethylphenyl)-1-(4-Ethylpiperazin-1-Yl)Isoquinoline Hydrochloride] | 154 to 156 °C
5 | CCCC(=O)NCc1ccc(-c2cc3ccccc3c(N3CCN(CC)CC3)n2)cc1 (as salt: hydrochloride) [Example 86, 3-(4-Propylcarbonylaminomethylphenyl)-1-(4-ethylpiperazin-1-yl)isoquinoline Hydrochloride] | 126 to 128 °C
6 | CCN1CCN(c2nc(-c3ccc(CNS(=O)(=O)CC)c(Cl)c3)cc3ccccc23)CC1 (as salt: hydrochloride) [Example 91, 3-(3-Chloro-4-ethylsulfonylaminomethylphenyl)-1-(4-ethylpiperazin-1-yl)isoquinoline Hydrochloride] | 278 to 280 °C (dec.)
7 | CCN1CCN(c2nc(-c3ccc(N4CCOC4=O)cc3)cc3ccccc23)CC1 (as salt: hydrochloride) [Example 95, 3-[4-(3-Oxazolidinone)phenyl]-1-(4-ethylpiperazin-1-yl)isoquinoline Hydrochloride] | 171 to 174 °C
8 | CCN1CCN(c2nc(-c3ccc(N4CCC(OC)CC4)cc3)cc3ccccc23)CC1 (as salt: hydrochloride) [Example 98, 1-(4-Ethylpiperazin-1-yl)-3-[4-(4-methoxypiperidin-1-yl)phenyl]isoquinoline Trihydrochloride] | 165 °C
9 | CCN1CCN(c2nc(CCc3ccc(OC)cc3)cc3ccccc23)CC1 (as salt: hydrochloride) [Example 106, 1-(1-Ethylpiperazin-4-yl)-3-(4-methoxyphenethyl)isoquinoline] | 224 to 227 °C
10 | CCN1CCN(c2nc(-c3ccccn3)cc3ccccc23)CC1 (as salt: hydrochloride) [Example 123, 1-(4-Ethylpiperazin-1-yl)-3-(2-Pyridyl)Isoquinoline Dihydrochloride] | 160 to 162 °C
11 | CCN1CCN(c2nc(-c3ccc(OCCO)nc3)cc3ccccc23)CC1 (as salt: hydrochloride) [Example 125, 1-(1-Ethylpiperazin-4-yl)-3-[2-(2-Hydroxyethoxy)Pyridin-5-yl]Isoquinoline] | 137 to 142 °C
12 | CCN1CCN(c2nc(-c3ccc(OCCOC)nc3)cc3ccccc23)CC1 (as salt: hydrochloride) [Example 126, 1-(1-Ethylpiperazin-4-yl)-3-[2-(2-Methoxyethoxy)Pyridin-5-yl]Isoquinoline] | 115 to 120 °C
13 | CCN1CCN(c2nc(-c3ccc(S(C)(=O)=O)nc3)cc3ccccc23)CC1 (as salt: hydrochloride) [Example 129, 3-[(2-Methylsulfonylpyridin)-5-yl]-1-(4-Ethylpiperazin-1-yl)Isoquinoline Hydrochloride] | 248 to 250 °C
14 | CCN1CCN(c2nc(-c3ccc(S(=O)(=O)CC)nc3)cc3ccccc23)CC1 (as salt: hydrochloride) [Example 130, 3-[(2-Ethylsulfonylpyridin)-5-yl]-1-(4-Ethylpiperazin-1-yl)Isoquinoline Hydrochloride] | 155 to 159 °C

Further lines, results first:

Row | melting point | Structure (SMILES)
15 | 198 to 201 °C | CCN1CCN(c2nc(-c3ccc(NS(=O)(=O)CC)cc3)cc3ccccc23)CC1 (as salt: hydrochloride) [Example 71, 3-(4-Ethylsulfonylaminophenyl)-1-(4-Ethylpiperazin-1-Yl)Isoquinoline Hydrochloride]
16 | 163 to 165 °C | CCCS(=O)(=O)Nc1ccc(-c2cc3ccccc3c(N3CCN(CC)CC3)n2)cc1 (as salt: hydrochloride) [Example 72, 3-(4-Propylsulfonylaminophenyl)-1-(4-Ethylpiperazin-1-Yl)Isoquinoline Hydrochloride]
17 | 268 to 270 °C (dec.) | CCN1CCN(c2nc(-c3ccc(S(=O)(=O)N4CCSCC4)cc3)cc3ccccc23)CC1 (as salt: hydrochloride) [Example 76, 3-[(4-Thiomorpholinyl)Sulfonylphenyl]-1-(4-Ethylpiperazin-1-Yl)Isoquinoline Hydrochloride]
18 | 194 to 197 °C | CCN1CCN(c2nc(-c3ccc(CCNS(=O)(=O)CC)cc3)cc3ccccc23)CC1 (as salt: hydrochloride) [Example 79, 3-(4-Ethylsulfonylaminoethylphenyl)-1-(4-Ethylpiperazin-1-Yl)Isoquinoline Hydrochloride]
19 | 194 to 197 °C | CCCNS(=O)(=O)Cc1ccc(-c2cc3ccccc3c(N3CCN(CC)CC3)n2)cc1 (as salt: hydrochloride) [Example 81, 3-(4-Propylaminosulfonylmethylphenyl)-1-(4-Ethylpiperazin-1-Yl)Isoquinoline Hydrochloride]
20 | 148 to 150 °C | CCN1CCN(c2nc(-c3ccc(C4CCOCC4)cc3)cc3ccccc23)CC1 (as salt: hydrochloride) [Example 83, 3-[4-(Tetrahydropyran-4-yl)phenyl]-1-(4-ethylpiperazin-1-yl)isoquinoline Hydrochloride]
21 | 170 to 172 °C | CCN1CCN(c2nc(-c3ccc(C4=CCOCC4)cc3)cc3ccccc23)CC1 (as salt: hydrochloride) [Example 84, 3-[4-(5,6-Dihydro-2H-pyran-4-yl)phenyl]-1-(4-ethylpiperazin-1-yl)isoquinoline Hydrochloride]
22 | 171 to 174 °C | CCC(=O)NCc1ccc(-c2cc3ccccc3c(N3CCN(CC)CC3)n2)cc1 (as salt: hydrochloride) [Example 85, 3-(4-Ethylcarbonylaminomethylphenyl)-1-(4-ethylpiperazin-1-yl)isoquinoline Hydrochloride]
23 | 143 to 145 °C | CCNC(=O)Cc1ccc(-c2cc3ccccc3c(N3CCN(CC)CC3)n2)cc1 (as salt: hydrochloride) [Example 87, 3-(4-Ethylaminocarbonylmethylphenyl)-1-(4-ethylpiperazin-1-yl)isoquinoline Hydrochloride]
24 | 138 to 141 °C | CCCNC(=O)Cc1ccc(-c2cc3ccccc3c(N3CCN(CC)CC3)n2)cc1 (as salt: hydrochloride) [Example 88, 3-(4-Propylaminocarbonylmethylphenyl)-1-(4-ethylpiperazin-1-yl)isoquinoline Hydrochloride]
25 | 133 to 136 °C | CCCCNC(=O)Cc1ccc(-c2cc3ccccc3c(N3CCN(CC)CC3)n2)cc1 (as salt: hydrochloride) [Example 89, 3-(4-Butylaminocarbonylmethylphenyl)-1-(4-ethylpiperazin-1-yl)isoquinoline Hydrochloride]
26 | 260 to 262 °C | CCN1CCN(c2nc(-c3ccc(CS(C)(=O)=O)cc3)cc3ccccc23)CC1 (as salt: hydrochloride) [Example 90, 3-(4-Methylsulfonylmethylphenyl)-1-(4-ethylpiperazin-1-yl)isoquinoline Hydrochloride]
27 | 253 to 255 °C (dec.) | CCCS(=O)(=O)NCc1ccc(-c2cc3ccccc3c(N3CCN(CC)CC3)n2)cc1Cl (as salt: hydrochloride) [Example 92, 3-(3-Chloro-4-propylsulfonylaminomethylphenyl)-1-(4-ethylpiperazin-1-yl)isoquinoline Hydrochloride]
28 | 193 to 197 °C | CCN1CCN(c2nc(-c3ccc(CN4CCSCC4)cc3)cc3ccccc23)CC1 (as salt: hydrochloride) [Example 94, 3-(4-Thiomorpholinylmethylphenyl)-1-(4-ethylpiperazin-1-yl)isoquinoline Hydrochloride]
29 | 178 °C | CCN1CCN(c2nc(-c3ccc(N4CCC(O)CC4)cc3)cc3ccccc23)CC1 (as salt: hydrochloride) [Example 97, 1-(4-Ethylpiperazin-1-yl)-3-[4-(4-hydroxypiperidin-1-yl)phenyl]isoquinoline Trihydrochloride]
30 | 108 to 110 °C | CCN1CCN(c2nc(C3CCc4c(OC)cccc43)cc3ccccc23)CC1 (stereo not shown) (as salt: hydrochloride) [Example 113, 3-(4-Methoxyindan-1-yl)-1-(4-ethylpiperazin-1-yl)isoquinoline Hydrochloride]
31 | 168 to 172 °C | CCN1CCN(c2nc(-c3ccc4c(c3)CC(CO)CO4)cc3ccccc23)CC1 (stereo not shown) (as salt: hydrochloride) [Example 122, 3-(3-Hydroxymethylchroman-6-yl)-1-(4-Ethylpiperazin-1-yl)Isoquinoline Hydrochloride]
32 | 110 to 115 °C | CCN1CCN(c2nc(-c3ccc(OCCO)cn3)cc3ccccc23)CC1 (as salt: hydrochloride) [Example 124, 1-(1-Ethylpiperazin-4-yl)-3-[5-(2-Hydroxyethoxy)Pyridin-2-yl]Isoquinoline]
33 | 116 to 119 °C | CCN1CCN(c2nc(-c3ccc(OCCOC)cn3)cc3ccccc23)CC1 (as salt: hydrochloride) [Example 127, 1-(1-Ethylpiperazin-4-yl)-3-[5-(2-Methoxyethoxy)Pyridin-2-yl]Isoquinoline]
34 | 168 to 171 °C | CCCC(=O)Nc1ccc(-c2cc3ccccc3c(N3CCN(CC)CC3)n2)cn1 (as salt: hydrochloride) [Example 128, 3-(2-propylcarbonylaminopyridin-5-yl)-1-(4-ethylpiperazin-1-yl)isoquinoline hydrochloride]

From US6875761B2 (Eisai Co., Ltd., priority 1997, dated 2005)
